Assay results taken from PubChem BioAssay AID292 (DTP/NCI, 2004).
Values joined by “and” are separate entries in the source; they are usually repeats but may differ in a detail not shown here. Equal entries are not always repeated. Inconclusive results and toxic doses are left out.

Test system: B6C3F1 mice, ip Sarcoma M5076, median survival T/C
Experiment: NCI In Vivo Anticancer Drug Screen. Data for tumor model Sarcoma M5076 (intraperitoneal) in B6C3F1 mice
Details: endpoint: median survival time, schedule: Q04DX004 (ip), higher = longer survival
Summary of the method: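 The readout is a ratio of survival in drug-treated animals to survival in animals given vehicle alone, taken in mice bearing a transplanted tumour line.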

[1] = dose: 50.0 mg/kg/injection, vehicle: Klucel (hydroxypropylcellulose) (HPC)
[2] = dose: 100.0 mg/kg/injection, vehicle: Klucel (hydroxypropylcellulose) (HPC)
[3] = dose: 50.0 mg/kg/injection, vehicle: saline
[4] = dose: 100.0 mg/kg/injection, vehicle: saline
[5] = dose: 25.0 mg/kg/injection, vehicle: Klucel (hydroxypropylcellulose) (HPC)
[6] = dose: 200.0 mg/kg/injection, vehicle: Klucel (hydroxypropylcellulose) (HPC)
[7] = dose: 400.0 mg/kg/injection, vehicle: Klucel (hydroxypropylcellulose) (HPC)

In the case of `NC(=O)C1=NOC(C(N)=O)C1C1OC(CO)C(O)C1O` (stereo not given), the T/C (dose: 37.5 mg/kg/injection, vehicle: water) is reported as 100 % of control, the T/C (dose: 75.0 mg/kg/injection, vehicle: water) is reported as 98 % of control and the T/C (dose: 150.0 mg/kg/injection, vehicle: water) is reported as 103 % of control. The T/C (dose: 300.0 mg/kg/injection, vehicle: water) was 106 % of control and the T/C (dose: 600.0 mg/kg/injection, vehicle: water) was 100 % of control.

In the case of `Cc1ccc(-c2nnc3cc(C)n4nnnc4n23)cc1`, the T/C (dose: 17.5 mg/kg/injection, vehicle: Klucel (hydroxypropylcellulose) (HPC)) is reported as 97 % of control, the T/C (dose: 35.0 mg/kg/injection, vehicle: Klucel (hydroxypropylcellulose) (HPC)) is reported as 99 % of control and the T/C (dose: 70.0 mg/kg/injection, vehicle: Klucel (hydroxypropylcellulose) (HPC)) is reported as 99 % of control. For the same molecule, the T/C (dose: 140.0 mg/kg/injection, vehicle: Klucel (hydroxypropylcellulose) (HPC)) was 101 % of control and the T/C (dose: 280.0 mg/kg/injection, vehicle: Klucel (hydroxypropylcellulose) (HPC)) was 97 % of control.

In the case of `CN(C)c1ccc2c(Nc3ccc(NS(C)(=O)=O)cc3)c3ccc(N(C)C)cc3nc2c1`, the T/C (dose: 21.6 mg/kg/injection, vehicle: Klucel (hydroxypropylcellulose) (HPC)) is reported as 116 % of control, the T/C [1] is reported as 151 % of control and the T/C [2] is reported as 159 % of control. The T/C (dose: 166.7 mg/kg/injection, vehicle: Klucel (hydroxypropylcellulose) (HPC)) was 172 % of control.

In the case of `O=C1C[C@@H](c2ccccc2)NCCCCN(O)CCCN1`, the T/C (dose: 25.0 mg/kg/injection, vehicle: saline) is reported as 102 % of control, the T/C [3] is reported as 102 % of control and the T/C [4] is reported as 102 % of control.

For `CCOC(=O)NC1CCc2cc(OC)c(OC)c(OC)c2-c2ccc(OC)c(=O)cc21` (stereo not given), the T/C (dose: 2.5 mg/kg/injection, vehicle: Klucel (hydroxypropylcellulose) (HPC)) was 150 % of control, the T/C (dose: 5.0 mg/kg/injection, vehicle: Klucel (hydroxypropylcellulose) (HPC)) was 183 % of control and the T/C (dose: 10.0 mg/kg/injection, vehicle: Klucel (hydroxypropylcellulose) (HPC)) was 176 % of control. For the same molecule, the T/C (dose: 20.0 mg/kg/injection, vehicle: Klucel (hydroxypropylcellulose) (HPC)) was 161 % of control and 178 % of control.

`Cc1ccc(C(=O)NC2C(=O)NC(C(C)C)C(=O)N3CCCC3C(=O)N(C)CC(=O)N(C)C(C(C)C)C(=O)OC2C)c2c1Oc1c(c(C(=O)NC3C(=O)NC(C(C)C)C(=O)N4CCCC4C(=O)N(C)CC(=O)N(C)C(C(C)C)C(=O)OC3C)c3nc(-c4ccccc4)c(=O)oc3c1C)N2` (stereo not given) was tested, and the T/C (dose: 0.25 mg/kg/injection, vehicle: water) was 101 % of control and 113 % of control, the T/C (dose: 0.5 mg/kg/injection, vehicle: water) was 99 % of control and the T/C (dose: 1.0 mg/kg/injection, vehicle: water) was 114 % of control.

`CC1CC12OC(=O)N(c1cc(Cl)cc(Cl)c1)C2=O` (stereo not given) was tested, and the T/C (dose: 37.5 mg/kg/injection, vehicle: saline + Tween-80 + alcohol) was 101 % of control, the T/C (dose: 75.0 mg/kg/injection, vehicle: saline + Tween-80 + alcohol) was 99 % of control and the T/C (dose: 150.0 mg/kg/injection, vehicle: saline + Tween-80 + alcohol) was 99 % of control. The T/C (dose: 300.0 mg/kg/injection, vehicle: saline + Tween-80 + alcohol) was 95 % of control and the T/C (dose: 600.0 mg/kg/injection, vehicle: saline + Tween-80 + alcohol) was 91 % of control.

In the case of `c1ccc2c(c1)oc1cc3c(cc12)ncc1cccn13`, the T/C (dose: 6.25 mg/kg/injection, vehicle: saline with Tween-80) is reported as 95 % of control, the T/C (dose: 12.5 mg/kg/injection, vehicle: saline with Tween-80) is reported as 90 % of control and the T/C (dose: 25.0 mg/kg/injection, vehicle: saline with Tween-80) is reported as 91 % of control.

`CCCS(=N)(=O)CCC(N)C(=O)O` (stereo not given) was tested, and the T/C [3] was 103 % of control, the T/C [4] was 105 % of control and the T/C (dose: 200.0 mg/kg/injection, vehicle: saline) was 102 % of control. The T/C (dose: 400.0 mg/kg/injection, vehicle: saline) was 102 % of control and the T/C (dose: 800.0 mg/kg/injection, vehicle: saline) was 105 % of control.

In the case of `O=C(O)[C@H](Cc1ccccc1)N1C(=O)c2ccccc2C1=O`, the T/C (dose: 62.5 mg/kg/injection, vehicle: DMSO) is reported as 92 % of control, the T/C (dose: 125.0 mg/kg/injection, vehicle: DMSO) is reported as 110 % of control and the T/C (dose: 250.0 mg/kg/injection, vehicle: DMSO) is reported as 100 % of control.

For `O=C(O)CC(Sc1ccc(Cl)cc1)C(=O)Nc1ccccc1` (stereo not given), the T/C (dose: 31.25 mg/kg/injection, vehicle: saline with Tween-80) was 99 % of control, the T/C (dose: 62.5 mg/kg/injection, vehicle: saline with Tween-80) was 102 % of control and the T/C (dose: 125.0 mg/kg/injection, vehicle: saline with Tween-80) was 90 % of control. For the same molecule, the T/C (dose: 500.0 mg/kg/injection, vehicle: saline with Tween-80) was 94 % of control.

For `CCCCCNc1ncnc2c(C)[nH]nc12`, the T/C [5] was 105 % of control, the T/C [1] was 97 % of control and the T/C [2] was 103 % of control. The T/C [6] was 88 % of control.

In the case of `O=C1CN(CO)C(=O)N1CO`, the T/C [5] is reported as 100 % of control, the T/C [1] is reported as 104 % of control and the T/C [2] is reported as 97 % of control. The T/C [6] was 114 % of control and the T/C [7] was 114 % of control.

In the case of `CC1=Nc2cc(N)nn2C(=O)C1`, the T/C (dose: 50.0 mg/kg/injection, vehicle: saline with Tween-80) is reported as 96 % of control and the T/C (dose: 100.0 mg/kg/injection, vehicle: saline with Tween-80) is reported as 99 % of control.

In the case of `Nc1nc(=O)nc2[nH]c3c4cccc5cccc(c3nc12)c54`, the T/C (dose: 37.5 mg/kg/injection, vehicle: saline with Tween-80) is reported as 101 % of control, the T/C (dose: 75.0 mg/kg/injection, vehicle: saline with Tween-80) is reported as 95 % of control and the T/C (dose: 150.0 mg/kg/injection, vehicle: saline with Tween-80) is reported as 98 % of control. For the same molecule, the T/C (dose: 300.0 mg/kg/injection, vehicle: saline with Tween-80) was 90 % of control and the T/C (dose: 600.0 mg/kg/injection, vehicle: saline with Tween-80) was 94 % of control.

With `COC1C(N)C(OC2C(Oc3cccc4c(O)c5c(=O)oc6ccc(C)c7c(=O)oc(c34)c5c67)OC(C)C(O)C2(C)O)OC(C)C1O` (stereo not given) the T/C (dose: 2.5 mg/kg/injection, vehicle: other) was 153 % of control, the T/C (dose: 10.0 mg/kg/injection, vehicle: DMSO) was 246 % of control and the T/C (dose: 10.0 mg/kg/injection, vehicle: other) was 165 % of control.

`CCC(=O)N=c1sc(SCc2ccccc2)nn1C(=O)SC` (tested in a mixture with another compound) was tested, and the T/C [5] was 101 % of control, the T/C [1] was 96 % of control and the T/C [2] was 101 % of control. For the same molecule, the T/C [6] was 89 % of control and the T/C [7] was 86 % of control.

In the case of `COC(C(=O)C(O)C(C)O)C1CC2C=C3C=C(OC4CC(OC5CC(O)C(OC)C(C)O5)C(OC(C)=O)C(C)O4)C(C)C(=O)C3=C(O)C2=C(O)C1OC1CC(OC2CC(OC3CC(C)(O)C(O)C(C)O3)C(O)C(C)O2)C(O)C(C)O1` (stereo not given), the T/C (dose: 1.0 mg/kg/injection, vehicle: saline with Tween-80) is reported as 104 % of control, the T/C (dose: 2.0 mg/kg/injection, vehicle: saline with Tween-80) is reported as 112 % of control and the T/C (dose: 4.0 mg/kg/injection, vehicle: saline with Tween-80) is reported as 107 % of control and 112 % of control. For the same molecule, the T/C (dose: 8.0 mg/kg/injection, vehicle: saline with Tween-80) was 104 % of control and 108 % of control, the T/C (dose: 16.0 mg/kg/injection, vehicle: saline with Tween-80) was 107 % of control and 111 % of control and the T/C (dose: 32.0 mg/kg/injection, vehicle: saline with Tween-80) was 117 % of control. For the same molecule, the T/C (dose: 64.0 mg/kg/injection, vehicle: saline with Tween-80) was 115 % of control.
